Data: PubChem BioAssay AID2060513 (Molecular Pharmacology Branch, DTP, NCI, 2025)

Test system: 299254-011-R-J1-PDC complex spheroids viability
Assay: Anticancer human tumor 299254-011-R-J1-PDC patient-derived melanoma cell line growth inhibition [GQUAD]
Details: for IC50: curve of first compound; for viability, T/C: stronger effect = lower value
In short: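 Tumor cells were grown as complex spheroids with HUVEC endothelial cells and mesenchymal stem cells as stroma. G-quadruplex stabilizers were combined with targeted agents over half-log dilutions from near the clinical Cmax, or from 10 microM.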

[1] = second compound 0.0316 µM, first compound 0.0316 µM
[2] = second compound 0.0316 µM, first compound 0.1 µM
[3] = second compound 0.0316 µM, first compound 0.316 µM
[4] = second compound 0.0316 µM, first compound 1 µM
[5] = second compound 0.0316 µM, first compound 3.16 µM
[6] = second compound 0.0316 µM, first compound 10 µM
[7] = second compound 0.1 µM, first compound 0.0316 µM
[8] = second compound 0.1 µM, first compound 0.1 µM
[9] = second compound 0.1 µM, first compound 0.316 µM
[10] = second compound 0.1 µM, first compound 1 µM
[11] = second compound 0.1 µM, first compound 3.16 µM
[12] = second compound 0.1 µM, first compound 10 µM
[13] = second compound 0.316 µM, first compound 0.0316 µM
[14] = second compound 0.316 µM, first compound 0.1 µM
[15] = second compound 0.316 µM, first compound 0.316 µM
[16] = second compound 0.316 µM, first compound 1 µM
[17] = second compound 0.316 µM, first compound 3.16 µM
[18] = second compound 0.316 µM, first compound 10 µM
[19] = second compound 1 µM, first compound 0.0316 µM
[20] = second compound 1 µM, first compound 0.1 µM
[21] = second compound 1 µM, first compound 0.316 µM
[22] = second compound 1 µM, first compound 1 µM
[23] = second compound 1 µM, first compound 3.16 µM
[24] = second compound 1 µM, first compound 10 µM
[25] = second compound 3.16 µM, first compound 0.0316 µM
[26] = second compound 3.16 µM, first compound 0.1 µM
[27] = second compound 3.16 µM, first compound 0.316 µM
[28] = second compound 3.16 µM, first compound 1 µM
[29] = second compound 3.16 µM, first compound 3.16 µM
[30] = second compound 3.16 µM, first compound 10 µM
[31] = second compound 10 µM, first compound 0.0316 µM
[32] = second compound 10 µM, first compound 0.1 µM
[33] = second compound 10 µM, first compound 0.316 µM
[34] = second compound 10 µM, first compound 1 µM
[35] = second compound 10 µM, first compound 3.16 µM
[36] = second compound 10 µM, first compound 10 µM
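Note: spheroids exposed to the agents for seven days before readout.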
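Throughout, for viability, T/C: percent viability relative to DMSO vehicle control wells = 100%.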

Question: What does the source list for `C#Cc1c(F)ccc2cc(O)cc(-c3ncc4c(N5CC6CCC(C5)N6)nc(OCC56CCCN5CC(F)C6)nc4c3F)c12` (stereo unspecified) + Cc1cnc(CNC(=O)c2c(=O)c3ccc(N4CCCN(C)CC4)nc3n3c2sc2ccccc23)cn1?
Answer: IC50 (second compound 0.0316 µM): > 10000 nM; IC50 (second compound 0.1 µM): > 10000 nM; IC50 (second compound 0.316 µM): > 10000 nM; IC50 (second compound 1 µM): > 10000 nM; IC50 (second compound 3.16 µM): > 10000 nM; IC50 (second compound 10 µM): < 31.6 nM; viability, T/C [1]: 108%; viability, T/C [2]: 87.8%; viability, T/C [3]: 102%; viability, T/C [4]: 93%; viability, T/C [5]: 96.2%; viability, T/C [6]: 79.8%; viability, T/C [7]: 123%; viability, T/C [8]: 99.2%; viability, T/C [9]: 122%; viability, T/C [10]: 91.7%; viability, T/C [11]: 103%; viability, T/C [12]: 80.5%; viability, T/C [13]: 113%; viability, T/C [14]: 115%; viability, T/C [15]: 117%; viability, T/C [16]: 87.1%; viability, T/C [17]: 91.1%; viability, T/C [18]: 74.1%; viability, T/C [19]: 81%; viability, T/C [20]: 105%; viability, T/C [21]: 94.4%; viability, T/C [22]: 102%; viability, T/C [23]: 83.1%; viability, T/C [24]: 85.6%; viability, T/C [25]: 74.8%; viability, T/C [26]: 103%; viability, T/C [27]: 99.8%; viability, T/C [28]: 85.8%; viability, T/C [29]: 83.4%; viability, T/C [30]: 88.6%; viability, T/C [31]: 50.6%; viability, T/C [32]: 18.7%; viability, T/C [33]: 43.6%; viability, T/C [34]: 33.4%; viability, T/C [35]: 51.3%; viability, T/C [36]: 0.39%

Question: Which results are given for `Nc1ccn(C2OC(CO)C(O)C2(F)F)c(=O)n1` (stereo unspecified) + Cc1cnc(CNC(=O)c2c(=O)c3ccc(N4CCCN(C)CC4)nc3n3c2sc2ccccc23)cn1?
Answer: IC50 (second compound 0.0316 µM): > 10000 nM; IC50 (second compound 0.1 µM): 282 nM; IC50 (second compound 0.316 µM): > 10000 nM; IC50 (second compound 1 µM): 1000 nM; IC50 (second compound 3.16 µM): 835 nM; IC50 (second compound 10 µM): < 31.6 nM; viability, T/C [1]: 102%; viability, T/C [2]: 76.5%; viability, T/C [3]: 64.3%; viability, T/C [4]: 44.7%; viability, T/C [5]: 56.7%; viability, T/C [6]: 68%; viability, T/C [7]: 90.4%; viability, T/C [8]: 72%; viability, T/C [9]: 45.6%; viability, T/C [10]: 48%; viability, T/C [11]: 50.1%; viability, T/C [12]: 46.7%; viability, T/C [13]: 80.5%; viability, T/C [14]: 78.8%; viability, T/C [15]: 69%; viability, T/C [16]: 56.1%; viability, T/C [17]: 54.3%; viability, T/C [18]: 70.3%; viability, T/C [19]: 85.6%; viability, T/C [20]: 87%; viability, T/C [21]: 48.7%; viability, T/C [22]: 44.5%; viability, T/C [23]: 60.5%; viability, T/C [24]: 58.8%; viability, T/C [25]: 79.3%; viability, T/C [26]: 69.3%; viability, T/C [27]: 64.6%; viability, T/C [28]: 42.9%; viability, T/C [29]: 54.4%; viability, T/C [30]: 44.6%; viability, T/C [31]: 50%; viability, T/C [32]: 24.9%; viability, T/C [33]: 47.8%; viability, T/C [34]: 49.9%; viability, T/C [35]: 48.3%; viability, T/C [36]: 0.4%

Question: What does the source list for `CCc1c2c(nc3ccc(O)cc13)-c1cc3c(c(=O)n1C2)COC(=O)[C@]3(O)CC` + Cc1cnc(CNC(=O)c2c(=O)c3ccc(N4CCCN(C)CC4)nc3n3c2sc2ccccc23)cn1?
Answer: IC50 (second compound 0.0316 µM): > 316 nM; IC50 (second compound 0.1 µM): > 316 nM; IC50 (second compound 0.316 µM): > 316 nM; IC50 (second compound 1 µM): > 316 nM; IC50 (second compound 3.16 µM): 142 nM; IC50 (second compound 10 µM): < 0.999 nM; viability, T/C (second compound 0.0316 µM, first compound 0.000999 µM): 102%; viability, T/C (second compound 0.0316 µM, first compound 0.00316 µM): 95.6%; viability, T/C (second compound 0.0316 µM, first compound 0.00999 µM): 68.3%; viability, T/C [1]: 70.9%; viability, T/C (second compound 0.0316 µM, first compound 0.0999 µM): 76.7%; viability, T/C [3]: 62.3%; viability, T/C (second compound 0.1 µM, first compound 0.000999 µM): 95.5%; viability, T/C (second compound 0.1 µM, first compound 0.00316 µM): 107%; viability, T/C (second compound 0.1 µM, first compound 0.00999 µM): 76.5%; viability, T/C [7]: 71.2%; viability, T/C (second compound 0.1 µM, first compound 0.0999 µM): 65.5%; viability, T/C [9]: 60.2%; viability, T/C (second compound 0.316 µM, first compound 0.000999 µM): 93.8%; viability, T/C (second compound 0.316 µM, first compound 0.00316 µM): 95.4%; viability, T/C (second compound 0.316 µM, first compound 0.00999 µM): 72.4%; viability, T/C [13]: 67.8%; viability, T/C (second compound 0.316 µM, first compound 0.0999 µM): 68.2%; viability, T/C [15]: 60.5%; viability, T/C (second compound 1 µM, first compound 0.000999 µM): 76.4%; viability, T/C (second compound 1 µM, first compound 0.00316 µM): 79.8%; viability, T/C (second compound 1 µM, first compound 0.00999 µM): 77.5%; viability, T/C [19]: 74.8%; viability, T/C (second compound 1 µM, first compound 0.0999 µM): 54.6%; viability, T/C [21]: 63.4%; viability, T/C (second compound 3.16 µM, first compound 0.000999 µM): 77.6%; viability, T/C (second compound 3.16 µM, first compound 0.00316 µM): 68%; viability, T/C (second compound 3.16 µM, first compound 0.00999 µM): 64%; viability, T/C [25]: 59%; viability, T/C (second compound 3.16 µM, first compound 0.0999 µM): 56%; viability, T/C [27]: 43%; viability, T/C (second compound 10 µM, first compound 0.000999 µM): 0.47%; viability, T/C (second compound 10 µM, first compound 0.00316 µM): 20.1%; viability, T/C (second compound 10 µM, first compound 0.00999 µM): 34.8%; viability, T/C [31]: 11.9%; viability, T/C (second compound 10 µM, first compound 0.0999 µM): 0.39%; viability, T/C [33]: 0.32%
